Results on 5 compounds are retold here after US20260125371A1, “METHOD FOR INHIBITING CLOSTRIDIOIDES DIFFICILE SPORE GERMINATION” (UNIVERSITY OF NOTRE DAME DU LAC, priority 2022, published 2026).

In brackets after ≈: the same amount, converted by molar mass. Where two headings read alike, the source gives them in different places.

One test has as its system K. pneumoniae ATCC700603. The following applies: cited from earlier work.
Another test has as its system E. faecium. The note with it: cited from earlier work.
The test system of test [1] is Gram-negative bacteria. The following applies: organisms of Table 2; data from earlier publication; cited from earlier work.
In the next test the test system is Eubacterium sp. HM-178. The following applies: cited from earlier work.
The next test deals with THP-1 cells. In words: Lactate dehydrogenase (LDH) cytotoxicity assay. Type of test: cell-based, human. The following applies: Homo sapiens.
Another test concerns A. baumanii ATCC17961. The following applies: cited from earlier work.
Test [2] relates to E. coli ATCC25922. The following applies: cited from earlier work.
In the next test the test system is B. cereus ATCC 13061. The following applies: cited from earlier work.
The next test relates to S. oralis ATCC 9811. The note with it: cited from earlier work.
The subject of test [3] is S. pyogenes ATCC 49399. The following applies: cited from earlier work.
Another test deals with E. aerogenes ATCC35029. The note with it: cited from earlier work.
The subject of test [4] is S. haemolyticus ATCC 29970. The following applies: cited from earlier work.
For test [5], the system named is S. epidermidis ATCC 35547. The following applies: cited from earlier work.
Test [6] has as its system B. licheniformis ATCC 12759. The following applies: cited from earlier work.
For a further test, the system named is P. aeruginosa ATCC27853. The following applies: cited from earlier work.
In test [7] the test system is Corynebacterium spp. HM-784. The following applies: cited from earlier work.
Another test concerns S. aureus. The following applies: cited from earlier work.
Test [8] concerns E. faecalis. The following applies: cited from earlier work.
For test [9], the system named is C. difficile strain ATCC43255 spores. The experiment in a line: Spore germination inhibition assay. It is filed as cell-based, Clostridioides difficile. The note with it: Clostridioides difficile, 1 h, compound 45 μM, germinant 6 mM taurocholate and 12 mM glycine, OD600 over 60 min, duplicate.
For test [10], the system named is Lactobacillus gasseri HM-644. In words: MIC against Lactobacillus gasseri (gut bacteria). Type of test: cell-based. The note with it: HM644.
Test [11] has as its system S. haemolyticus ATCC 29970. The experiment in a line: MIC against S. haemolyticus. It is filed as cell-based. The note with it: Staphylococcus haemolyticus, ATCC29970.
The test system of test [12] is S. pyogenes ATCC 49399. The experiment in a line: MIC against S. pyogenes. The note with it: Streptococcus pyogenes, ATCC49399. It is filed as cell-based.
The subject of test [13] is E. coli ATCC25922. In words: MIC against E. coli. Type of test: cell-based. The note with it: Escherichia coli; E. coli ATCC25922; read-out: MIC.
Test [14] relates to E. faecalis. In words: MIC against E. faecalis strains. It is filed as cell-based. The note with it: Enterococcus faecalis.
Test [15] concerns C. difficile ATCC 43255 vegetative cells. In words: Mode of action by scanning electron microscopy (SEM). The following applies: 8× MIC for 24 h.
Test [16] relates to Gram-negative bacteria. It is filed as cell-based.
The next test concerns C. difficile ATCC 43255. The experiment in a line: Time-kill assay. It is filed as cell-based, Clostridioides difficile.
In test [17] the test system is Clostridioides difficile infection. The following applies: CDI patients; cited from earlier work.
For test [18], the system named is B. licheniformis ATCC 12759. In words: MIC against B. licheniformis. The following applies: Bacillus licheniformis, ATCC12759. It is filed as cell-based.
Test [19] deals with S. epidermidis ATCC 35547. The experiment in a line: MIC against S. epidermidis. The following applies: Staphylococcus epidermidis, ATCC35547. Type of test: cell-based.
The mark [20] stands for this setting: THP-1, 24 h, read-out: LDH (IC50).
The mark [21] stands for this setting: S. haemolyticus ATCC 29970, read-out: MIC.

Consider `FC(F)(F)c1ccc(Oc2ccc(-c3noc(-c4ccc5[nH]ccc5c4)n3)cc2)cc1` [Compound 1], for which the MIC (usually the least concentration at which growth counts as inhibited) in the test with K. pneumoniae ATCC700603 is >128 µg/mL; in the test with E. faecium (E. faecium 106 (Van R)), 2 µg/mL (≈ 4.75 µM); in the test on E. faecium (E. faecium 119-39A (Van S)), 1 µg/mL (≈ 2.37 µM); with E. faecium (E. faecium NCTC 7171), 2 µg/mL (≈ 4.75 µM); in the test with Eubacterium sp. HM-178, 2 µg/mL (≈ 4.75 µM); with A. baumanii ATCC17961, >128 µg/mL. Besides, the MIC was >128 µg/mL in the test on E. coli ATCC25922 [2]; 16 µg/mL (≈ 38 µM) with B. cereus ATCC 13061; 128 µg/mL (≈ 304 µM) with S. oralis ATCC 9811; 64 µg/mL (≈ 152 µM) in the test on S. pyogenes ATCC 49399 [3]; >128 µg/mL in the test on E. aerogenes ATCC35029; 8 µg/mL (≈ 19 µM) in test [4]. Further, the MIC in test [5] was 2 µg/mL (≈ 4.75 µM); in test [6] it was 8 µg/mL (≈ 19 µM); in the test on P. aeruginosa ATCC27853 it was >128 µg/mL; in test [7], 2 µg/mL (≈ 4.75 µM); in the test with S. aureus (S. aureus ATCC 27660) it was 4 µg/mL (≈ 9.49 µM); in the test on S. aureus (S. aureus ATCC 29213), 4 µg/mL (≈ 9.49 µM). Also, the MIC with S. aureus (S. aureus NRS100 (COL)) is 2 µg/mL (≈ 4.75 µM); with S. aureus (S. aureus NRS119), 2 µg/mL (≈ 4.75 µM); in the test with S. aureus (S. aureus NRS120) it was 2 µg/mL (≈ 4.75 µM); in the test on S. aureus (S. aureus VRS1), 2 µg/mL (≈ 4.75 µM); in the test on S. aureus (S. aureus VRS2) it was 2 µg/mL (≈ 4.75 µM); with E. faecalis [8] (E. faecalis 99 (Van R)), 4 µg/mL (≈ 9.49 µM). Further, the MIC in the test with E. faecalis [8] (E. faecalis 201 (Van S)) was 4 µg/mL (≈ 9.49 µM); with E. faecalis [8] (E. faecalis ATCC 29212) it was 8 µg/mL (≈ 19 µM). For the same compound, the “activity against Gram-negative organisms” value in the test with Gram-negative bacteria [1] was “no activity”. The IC50 (commonly the concentration at which inhibition is half-maximal) with THP-1 cells (THP-1 cells, 24 h, read-out: LDH (IC50)) is 69 ± 6 µg/mL (≈ 164 µM); in the test on THP-1 cells (THP-1 cells, read-out: toxicity IC50 (LDH assay)), > 50 µg/mL. The “MIC against MRSA” value in the test with S. aureus (MRSA) was 2 µg/mL (≈ 4.75 µM).
Turning to `Oc1ccc(-c2nc(-c3ccc(OC4CCCC4)cc3)no2)cc1` [Compound 2], the MIC in the test on K. pneumoniae ATCC700603 is >128 µg/mL; in the test with E. faecium (E. faecium 106 (Van R)), 2 µg/mL (≈ 6.2 µM); in the test with E. faecium (E. faecium 119-39A (Van S)), 2 µg/mL (≈ 6.2 µM); with E. faecium (E. faecium NCTC 7171) it was 4 µg/mL (≈ 12.4 µM); in the test on Eubacterium sp. HM-178, 4 µg/mL (≈ 12.4 µM); in the test on A. baumanii ATCC17961 it was >128 µg/mL. Besides, the minimum inhibitory concentration (MIC) with E. coli ATCC25922 [2] is >128 µg/mL; with B. cereus ATCC 13061, 2 µg/mL (≈ 6.2 µM); in the test on S. oralis ATCC 9811, >128 µg/mL; in the test with S. pyogenes ATCC 49399 [3], >128 µg/mL; in the test with E. aerogenes ATCC35029, >128 µg/mL; in [4], 2 µg/mL (≈ 6.2 µM). Also, the MIC in test [5] is 2 µg/mL (≈ 6.2 µM); in test [6], 4 µg/mL (≈ 12.4 µM); in the test with P. aeruginosa ATCC27853, >128 µg/mL; in [7], 0.5 µg/mL (≈ 1.55 µM); in the test with S. aureus (S. aureus ATCC 27660), 2 to 4 µg/mL; in the test with S. aureus (S. aureus ATCC 29213), 2 µg/mL (≈ 6.2 µM). Further, the MIC was 1 µg/mL (≈ 3.1 µM) with S. aureus (S. aureus NRS100 (COL)); 1 to 2 µg/mL in the test on S. aureus (S. aureus NRS119); 2 µg/mL (≈ 6.2 µM) in the test on S. aureus (S. aureus NRS120); 2 µg/mL (≈ 6.2 µM) in the test with S. aureus (S. aureus VRS1); 2 µg/mL (≈ 6.2 µM) with S. aureus (S. aureus VRS2); 4 µg/mL (≈ 12.4 µM) in the test on E. faecalis [8] (E. faecalis 99 (Van R)). The MIC in the test on E. faecalis [8] (E. faecalis 201 (Van S)) and in the test on E. faecalis [8] (E. faecalis ATCC 29212) was 4 µg/mL (≈ 12.4 µM) throughout. The “activity against Gram-negative organisms” value with Gram-negative bacteria [1] is reported as “no activity”. The IC50 in the test on THP-1 cells (setting [20]) amounted to 18 ± 1 µg/mL (≈ 55.8 µM).
As to `O=[N+]([O-])c1cnc(-c2nc(-c3ccc(OC4CCCC4)cc3)no2)[nH]1` [Compound 57, 3-(4-(Cyclopentyloxy)phenyl)-5-(4-nitro-1H-imidazol-2-yl)-1,2,4-oxadiazole], in [9], the inhibition (in general, the change of the read-out against control, counted positive when it falls) at 45 µM is < 10%. In addition, the MIC is > 128 µg/mL in [10]; 32 µg/mL (≈ 93.8 µM) in test [11] (setting [21]); > 128 µg/mL in the test on S. pyogenes ATCC 49399 [12]; > 128 µg/mL in the test on E. coli ATCC25922 [13]; 128 µg/mL (≈ 375 µM) in the test on E. faecalis [14] (E. faecalis 99 (Van R), read-out: MIC). Besides, the half-maximal inhibitory concentration (IC50) in the test on THP-1 cells (setting [20]) is > 128 µg/mL; in the test on THP-1 cells (THP-1, read-out: toxicity IC50 (LDH assay)) it was > 50 µg/mL. Moreover, in test [15], the “effect on vegetative cells by SEM” value is given as “damage to the cell wall”. Moreover, the “activity against Gram-negative organisms” value with Gram-negative bacteria [16] is given as “no activity”. The “reduction in bacterial growth (time-kill)” value with C. difficile ATCC 43255 (4× MIC, 12 h) is recorded as ≥ 3 log10; in the test on C. difficile ATCC 43255 (8× MIC) it was 4 log 10; in the test with C. difficile ATCC 43255 (all concentrations: 1×, 2×, 4×, 8× MIC), “Four-log10 reduction”.
Consider `CCc1c(Cl)c(O)c(Cl)c(O)c1C(=O)O[C@H]1[C@H](O)[C@H](OC)[C@H](OC/C2=C\C=C\C[C@H](O)/C(C)=C/[C@H](CC)[C@@H](O[C@@H]3OC(C)(C)[C@@H](OC(=O)C(C)C)[C@H](O)[C@@H]3O)/C(C)=C/C(C)=C/C[C@@H]([C@@H](C)O)OC2=O)O[C@@H]1C` [FDX, fidaxomicin], for which the MIC in the test with Eubacterium sp. HM-178 is 16 µg/mL (≈ 15.1 µM); in [11] (setting [21]) it was 16 µg/mL (≈ 15.1 µM); with E. coli ATCC25922 [13], > 128 µg/mL; in [7], <0.06 µg/mL. In addition, in [17], the recurrence of infection was 15%. The “activity against Gram-negative organisms” value in the test with Gram-negative bacteria [16] is recorded as “no activity”.
In the case of `Cc1ncc([N+](=O)[O-])n1CCO` [MTZ, metronidazole], in test [17], the recurrence of infection is given as 27%. Moreover, the MIC in test [11] was > 256 µg/mL; with S. pyogenes ATCC 49399 [12], > 128 µg/mL; in test [18], > 256 µg/mL; with E. coli ATCC25922 [13], > 128 µg/mL; against E. faecalis [14], > 256 µg/mL; in the test on E. faecalis [14] (ATCC29212) it was > 256 µg/mL. In addition, the MIC is > 128 µg/mL in [19] and >32 µg/mL in test [7]. The “effect on vegetative cells by SEM” value in test [15] was “No obvious effect”. Moreover, the “activity against Gram-negative organisms” value in the test with Gram-negative bacteria [16] is listed as “no activity”. Besides, the “reduction in bacterial growth (time-kill)” value in the test on C. difficile ATCC 43255 (8× MIC) is reported as 4 log 10.
